Experimental data as given in patent EP4574175A1, “PRODRUG FOR ANTI-AGING RELATED DISEASES AND USE METHOD THEREFOR” (BEIJING SUNCELL BIO-MEDICAL CO., LTD., priority 2022, dated 2024).
Where two headings read alike, the source gives them in different places.

Experiments:
[1] = in vitro; conditions: mouse
Method: […] Samples were taken and analyzed at time points 0, 15, 30, 45 and 60 minutes during the incubation. The reaction was terminated by adding an amount of acetonitrile solution containing the internal standard. […] The residual percentage, half-life, intrinsic clearance, amplified clearance, hepatic clearance and hepatic extraction ratio were determined. The entire experiment was performed in triplicate. All data calculations were performed by Microsoft Excel software. Peak areas were detected by extracting the ionic spectrum. The in vitro half-life (t1/2) of the parent compound was detected by fitting the natural logarithm of the percentage elimination of the parent compound linearly to time.
The in vitro intrinsic clearance (in µL/min/mg protein) was calculated using the following equation: in vitro CLint = kV/N
The amplified clearance (in mL/min/kg) was calculated using the following equation: Amplified CLint = kV/N × the amplification factor [formula]
The hepatic clearance (in mL/min/kg) was calculated using the following equation: The predicted hepatic CLH = (Q×Fu/RB×theamplifiedCLint)/([…]) [formula] • V = the incubation volume per well (0.2 mL); • N = the total amount of protein (mg) • Q = the hepatic blood flow (mL/min/kg) • Fu = the plasma free rate (assumed to be 1) • RB = the whole blood partition coefficient (assumed to be 1)
The hepatic […] was calculated using the following equation: The hepatic extraction ratio(ER) = (thepredictedhepaticCLH)/Q [formula]

[2] = in vitro; conditions: dog
[3] = monkey, 1 µM
[4] = in vitro; conditions: human
[5] = in vitro; conditions: monkey
[6] = rat, 1 µM
[7] = in vitro; conditions: rat
[8] = dog, 1 µM
[9] = human, 1 µM

CLint scaled at 1 µM [1]: 5.27 L/h/kg | The hepatic extraction ratio (E) ([1]; 1 µM): 0.98 | CLint scaled at 1 µM ([1]; microsomes): 218 L/h/kg | half-life at 1 µM ([1]; microsomes): 1.68 min | microsomal CLint at 1 µM ([1]; microsomes): 824 µL/min/mg | CLint scaled at 1 µM [2]: 1.83 L/h/kg | CLint scaled at 1 µM ([2]; microsomes): 123 L/h/kg | half-life at 1 µM ([2]; microsomes): 1.68 min | microsomal CLint at 1 µM ([2]; microsomes): 824 µL/min/mg | The hepatic extraction ratio (E) [3]: 0.97 | CLint scaled at 1 µM [4]: 1.21 L/h/kg | CLint scaled at 1 µM ([4]; microsomes): 46.4 L/h/kg | half-life at 1 µM ([4]; microsomes): 2.25 min | microsomal CLint at 1 µM ([4]; microsomes): 617 µL/min/mg | CLint scaled at 1 µM ([5]; The predicted intrinsic hepatic clearance Cl int): 2.52 L/h/kg | half-life at 1 µM ([5]; microsomes): 1.72 min | microsomal CLint at 1 µM ([5]; microsomes): 806 µL/min/mg | CLint scaled at 1 µM ([5]; microsomes, The amplified intrinsic clearance Cl int): 72.5 L/h/kg | The hepatic extraction ratio (E) [6]: 0.95 | CLint scaled at 1 µM [7]: 3.14 L/h/kg | CLint scaled at 1 µM ([7]; microsomes): 60.4 L/h/kg | half-life at 1 µM ([7]; microsomes): 2.47 min | microsomal CLint at 1 µM ([7]; microsomes): 562 µL/min/mg | The hepatic extraction ratio (E) [8]: 0.99 | The hepatic extraction ratio (E) [9]: 0.97
Structure (SMILES): O=c1ccc2ccc(O)cc2o1 [7-hydroxycoumarin]
